Data as given in publication PMC7497630, “Coibamide A Targets Sec61 to Prevent Biogenesis of Secretory and Membrane Proteins” (ACS Chemical Biology, 2020).
Read-outs that look alike come from different tables or passages of the source. Bridge positions count the residues as written; N and C are the ends. Square brackets hold non-standard residues; d marks the D form. Peptide text beside a SMILES is read from it. * marks the point of attachment. NMe2Val = CC(C)[C@@H](C(=O)*)N(C)C; NMeI = CC[C@H](C)[C@H](NC)C(=O)O; NMeT = CN[C@H](C(=O)O)[C@@H](C)O; NMeL = CN[C@@H](CC(C)C)C(=O)O; dHiv = CC(C)[C@@H](O)C(=O)O; NMeS = CN[C@@H](CO)C(=O)O; dNMeA = CN[C@H](C)C(=O)O

Legend:
[1] = system: HCT116 resistant line 100-1; test: Cell viability, Alamar Blue, CbA-resistant line; assay type: cell-based, human; conditions: 72 h, n = 4 (Figure 5A), read-out: HCT116 Resistant lines IC50 (100-1)
Experimental: (§1) Figure 5 CbA mode of inhibition is specific compared to known Sec61 inhibitors. (A) Cell viability was measured by Alamar Blue assay (mean ± SD, n = 4, all cell lines assayed simultaneously) for HCT-116 cell lines isolated on the basis of CbA resistance in the presence of concentration series of indicated compounds. (B) Cell viability was measured by Alamar Blue assay (mean ± SD, n = 4, all cell lines assayed simultaneously) for HEK293FRT cells stably expressing Sec61α mutants in the presence of concentration series of indicated compounds. (C) Comparison of published NCI60 data for CbA,[3] AprA,[11] and IpoF.[33] The heat map was derived by plotting each GI50 value divided by the median GI50 for that compound. X indicates a cell line that was not tested. Closed arrowhead indicates cell lines with most notable differences across the three compounds. TEXT PRINTED IN THE PICTURE: (A) CbA: HCT116 Resistant lines IC50(nM): 24 (WT); HCT116 Resistant lines IC50(nM): 6500 (100-1); HCT116 Resistant lines IC50(nM): 7500 (100-2); HCT116 Resistant lines IC50(nM): 5800 (100-3); HCT116 Resistant lines IC50(nM): 7800 (100-4); HCT116 Resistant lines IC50(nM): 3800 (100-5) | (A) AprA: HCT116 Resistant lines IC50(nM): 80 (WT); HCT116 Resistant lines IC50(nM): >10000 (100-1); HCT116 Resistant lines IC50(nM): >10000 (100-2); HCT116 Resistant lines IC50(nM): >10000 (100-3); HCT116 Resistant lines IC50(nM): >10000 (100-4); HCT116 Resistant lines IC50(nM): >10000 (100-5) | (B) CbA: Sec61α engineered lines IC50(nM): 12 (WT); Sec61α engineered lines IC50(nM): 83 (R66I); Sec61α engineered lines IC50(nM): 20 (T86M); Sec61α engineered lines IC50(nM): 81 (S82P) | (B) AprA: Sec61α engineered lines IC50(nM): 24 (WT); Sec61α engineered lines IC50(nM): >10000 (R66I); Sec61α engineered lines IC50(nM): 2500 (T86M); Sec61α engineered lines IC50(nM): 4700 (S82P)
(§2) A431, HEK293T, and HEK293FRT cells were cultured in DMEM supplemented with 10% FBS. HCT-116 cells were cultured in McCoy’s 5A media supplemented with 10% FBS. U87-MG cells were cultured in Minimum Essential Media (MEM) with 10% FBS, L-glutamine (2 mM), and 1% penicillin and streptomycin. MDA-MB-231 cells were cultured in MEM with Earl’s salts plus 1% penicillin/streptomycin and 10% FBS. All cell lines were incubated at 37 °C under 5% CO2. The activity of synthetic coibamide and photoaffinity analogues was tested in MDA-MB-231 and A549 cells after 72 h by MTS assay. All other cell viability assays were performed by seeding PerkinElmer Viewplate-96 plates at a density of 2.5 × 10^3 cells per well. Cells were allowed 24 h to adhere and then treated with indicated concentrations of inhibitors or vehicle (0.1% DMSO) for a further 72 h. Viability was estimated by the addition of Alamar Blue (Life Technologies) and measuring fluorescence after a further 4 h. Pulse-labeling experiments were performed by seeding six-well plates with 5 × 10^5 cells per well and allowing 24 h for cells to adhere. Cells were washed twice with PBS, then exchanged into Met-Cys free media with indicated concentrations of inhibitors for 30 min. 100 μCi of PerkinElmer EXPRE^35S^35S Protein Labeling Mix was then added per well. Media wer collected, and the cells were harvested by scraping them into ice cold PBS after 30 min. Total protein was acquired by RIPA extraction from the cell pellet. Glycosylated protein was acquired by Concanavalin A purification, and secreted protein was acquired by TCA precipitation of the media. […]

[2] = system: HCT116 resistant line 100-4; test: Cell viability, Alamar Blue, CbA-resistant line; assay type: cell-based, human; conditions: 72 h, n = 4 (Figure 5A), read-out: HCT116 Resistant lines IC50 (100-4)
Experimental: as §1, §2

[3] = system: HCT116 resistant line 100-5; test: Cell viability, Alamar Blue, CbA-resistant line; assay type: cell-based, human; conditions: 72 h, n = 4 (Figure 5A), read-out: HCT116 Resistant lines IC50 (100-5)
Experimental: as §1, §2

[4] = system: HCT116 resistant line 100-2; test: Cell viability, Alamar Blue, CbA-resistant line; assay type: cell-based, human; conditions: 72 h, n = 4 (Figure 5A), read-out: HCT116 Resistant lines IC50 (100-2)
Experimental: as §1, §2

[5] = system: HCT116 resistant line 100-3; test: Cell viability, Alamar Blue, CbA-resistant line; assay type: cell-based, human; conditions: 72 h, n = 4 (Figure 5A), read-out: HCT116 Resistant lines IC50 (100-3)
Experimental: as §1, §2

HCT116 cells = test: Cell viability, Alamar Blue assay; assay type: cell-based, human
Experimental: (§3) Figure 1 Cytotoxicity of synthetic and Pra-containing coibamides. (A) Structure of CbA. (B) Human MDA-MB-231 breast cancer cells were treated with increasing concentrations of synthetic CbA or vehicle (0.1% DMSO) and cell viability assessed at 72 h by an MTS end-point assay. (C) Structure of Photo-CbA. (D) Human HCT116 cells were treated with increasing concentrations of synthetic or photo-CbA in 0.1% DMSO, and cell viability assessed at 72 h by Alamar Blue assay. TEXT PRINTED IN THE PICTURE: (B) CbA: MDA-MB-231 cell line: IC50(nM): 1.6 | (D) CbA: HCT 116 cell line: IC50(nM): 29.2 | (D) Photo-CbA: HCT 116 cell line: IC50(nM): 6.5
(§4) Figure 5 CbA mode of inhibition is specific compared to known Sec61 inhibitors. (A) Cell viability was measured by Alamar Blue assay (mean ± SD, n = 4, all cell lines assayed simultaneously) for HCT-116 cell lines isolated on the basis of CbA resistance in the presence of concentration series of indicated compounds. (B) Cell viability was measured by Alamar Blue assay (mean ± SD, n = 4, all cell lines assayed simultaneously) for HEK293FRT cells stably expressing Sec61α mutants in the presence of concentration series of indicated compounds. (C) Comparison of published NCI60 data for CbA,[3] AprA,[11] and IpoF.[33] The heat map was derived by plotting each GI50 value divided by the median GI50 for that compound. X indicates a cell line that was not tested. Closed arrowhead indicates cell lines with most notable differences across the three compounds. […]
(§5) A431, HEK293T, and HEK293FRT cells were cultured in DMEM supplemented with 10% FBS. […] Viability was estimated by the addition of Alamar Blue (Life Technologies) and measuring fluorescence after a further 4 h. […]

[6] = system: A549 human lung adenocarcinoma cells; conditions: 72 h
[7] = biological target: HEK293FRT cells stably expressing Sec61α WT (Homo sapiens, UniProt P61619); test: Cell viability, Alamar Blue, Sec61α engineered lines; assay type: cell-based; conditions: 72 h, n = 4 (Figure 5B)
HEK293FRT cells stably expressing Sec61α WT, sequence (P61619 whole entry): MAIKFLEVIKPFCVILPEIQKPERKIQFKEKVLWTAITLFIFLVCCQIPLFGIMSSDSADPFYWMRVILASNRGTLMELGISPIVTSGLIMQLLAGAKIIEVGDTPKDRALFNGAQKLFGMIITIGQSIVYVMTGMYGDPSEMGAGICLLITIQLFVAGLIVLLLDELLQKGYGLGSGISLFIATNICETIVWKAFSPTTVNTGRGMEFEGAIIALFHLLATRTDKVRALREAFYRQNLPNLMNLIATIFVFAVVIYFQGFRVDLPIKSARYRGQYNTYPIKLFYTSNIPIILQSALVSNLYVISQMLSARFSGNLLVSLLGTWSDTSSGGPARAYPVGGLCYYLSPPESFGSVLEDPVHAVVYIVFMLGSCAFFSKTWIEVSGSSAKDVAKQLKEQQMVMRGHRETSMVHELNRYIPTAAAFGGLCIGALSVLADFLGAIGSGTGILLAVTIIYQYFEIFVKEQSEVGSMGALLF
Experimental: as §4, §5

[8] = system: MDA-MB-231 breast cancer cells; test: Cell viability, MTS end-point assay; assay type: cell-based, human; conditions: synthetic CbA, 72 h, vehicle 0.1% DMSO
Experimental: as §3
A431, HEK293T, and HEK293FRT cells were cultured in DMEM supplemented with 10% FBS. HCT-116 cells were cultured in McCoy’s 5A media supplemented with 10% FBS. U87-MG cells were cultured in Minimum Essential Media (MEM) with 10% FBS, L-glutamine (2 mM), and 1% penicillin and streptomycin. MDA-MB-231 cells were cultured in MEM with Earl’s salts plus 1% penicillin/streptomycin and 10% FBS. All cell lines were incubated at 37 °C under 5% CO2. The activity of synthetic coibamide and photoaffinity analogues was tested in MDA-MB-231 and A549 cells after 72 h by MTS assay. […] Viability was estimated by the addition of Alamar Blue (Life Technologies) and measuring fluorescence after a further 4 h. […]

CC[C@H](C)[C@H]1C(=O)N[C@@H](C)C(=O)N(C)[C@@H](CC(C)C)C(=O)N[C@@H](Cc2ccc(OC)cc2)C(=O)N(C)[C@H](C)C(=O)O[C@H](C)[C@H](N(C)C(=O)[C@H](CC(C)C)N(C)C(=O)[C@H](COC)N(C)C(=O)[C@H](OC(=O)[C@H](C(C)C)N(C)C)C(C)C)C(=O)N(C)[C@@H](COC)C(=O)N1C [CbA, Coibamide A] (NMe2Val-[dHiv][NMeS](Me)[NMeL][NMeT][NMeS](Me)[NMeI]A[NMeL]Y(Me)[dNMeA]; ester 4-C)
IC50 [1]: 6500 nM | IC50 [2]: 7800 nM | IC50 [3]: 3800 nM | IC50 [4]: 7500 nM | IC50 [5]: 5800 nM | IC50 (HCT116 cells; HCT116, 72 h, 0.1% DMSO (Figure 1D), read-out: IC50): 29.2 nM | IC50 (HCT116 cells; HCT116 WT, 72 h, mean ± SD, n = 4 (Figure 5A), read-out: HCT116 Resistant lines IC50 (WT)): 24 nM | IC50 [6]: 2.1 ± 0.7 nM | IC50 [7]: 12 nM | IC50 [8]: 1.6 nM
